Data set [1] can be described thus: Intrinsic clearance in human hepatocytes assessed per million cells.
The nature of data set [2]: Intrinsic clearance in human liver microsomes assessed per mg of protein by glucuronidation assay in presence of Brijj-58 and UDPGA. For orientation: Microsomes from liver hold many membrane-bound enzymes, among them those of drug oxidation.
Data set [3] addresses Muscarinic acetylcholine receptor M3 (Cavia porcellus) (UniProt Q8VH26). As to the kind of experiment: Antagonist activity at M3 receptor in Dunkin-Hartley guinea pig tracheal strips assessed as time taken for electrically field-stimulated contractile response to recover by 25 percent of inhibition at Emax after 2 hrs. The format is functional.
Another data set relates to Cavia porcellus. As to the kind of experiment: Bronchodilator activity in Dunkin-Hartley guinea pig assessed as inhibition of […] lung resistance after cumulative intratracheal administration in micelle solution at hourly intervals challenged each time 1 hr later with methacholine. In kind it is functional, organism-based.
The target in data set [4] is T1, Muscarinic acetylcholine receptor M1 (Homo sapiens) (UniProt P11229).
T1 sequence (whole entry): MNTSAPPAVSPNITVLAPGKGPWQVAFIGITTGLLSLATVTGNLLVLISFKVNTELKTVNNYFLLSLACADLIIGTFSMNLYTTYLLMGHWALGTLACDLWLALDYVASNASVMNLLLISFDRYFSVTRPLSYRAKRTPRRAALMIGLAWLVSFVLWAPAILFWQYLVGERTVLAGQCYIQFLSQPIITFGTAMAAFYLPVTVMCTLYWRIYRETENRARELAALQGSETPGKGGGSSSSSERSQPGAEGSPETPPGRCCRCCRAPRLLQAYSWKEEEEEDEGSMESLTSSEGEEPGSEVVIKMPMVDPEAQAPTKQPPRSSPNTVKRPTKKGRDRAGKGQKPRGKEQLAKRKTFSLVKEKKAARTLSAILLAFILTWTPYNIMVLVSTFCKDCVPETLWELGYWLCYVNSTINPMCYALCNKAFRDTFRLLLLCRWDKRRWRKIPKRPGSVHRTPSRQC
As to the kind of experiment: Displacement of [3H]-NMS from human recombinant M1 receptor expressed in CHO cells assessed as dissociation half life at 100 fold human M1 receptor binding Ki concentration after 24 hrs by dilution-offset filter binding assay. The format is cell-based. (Loss of bound radioactivity is the signal in a displacement assay; it reports binding, not function.)

Data set [5] has as its target T2, Muscarinic acetylcholine receptor M2 (Homo sapiens, UniProt P08172).
T2 sequence (P08172 whole entry): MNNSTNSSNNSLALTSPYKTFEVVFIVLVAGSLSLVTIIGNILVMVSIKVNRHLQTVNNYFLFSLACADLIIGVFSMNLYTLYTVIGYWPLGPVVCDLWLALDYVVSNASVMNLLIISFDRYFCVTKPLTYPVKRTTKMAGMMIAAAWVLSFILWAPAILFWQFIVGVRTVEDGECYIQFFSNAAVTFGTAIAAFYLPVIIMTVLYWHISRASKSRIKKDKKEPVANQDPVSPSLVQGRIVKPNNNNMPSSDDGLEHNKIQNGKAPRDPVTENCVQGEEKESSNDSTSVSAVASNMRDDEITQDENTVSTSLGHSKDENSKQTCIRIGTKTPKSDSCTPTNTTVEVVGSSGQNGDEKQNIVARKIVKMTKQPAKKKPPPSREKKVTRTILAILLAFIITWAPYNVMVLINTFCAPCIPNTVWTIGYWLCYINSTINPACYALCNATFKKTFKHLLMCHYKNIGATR
As to the kind of experiment: Displacement of [3H]-NMS from human recombinant M2 receptor expressed in CHO cells after 24 hrs by filter binding assay. In kind it is cell-based.

Data set [6] has as its target T3, Muscarinic acetylcholine receptor M4 (Homo sapiens) (UniProt P08173).
T3 sequence (whole entry): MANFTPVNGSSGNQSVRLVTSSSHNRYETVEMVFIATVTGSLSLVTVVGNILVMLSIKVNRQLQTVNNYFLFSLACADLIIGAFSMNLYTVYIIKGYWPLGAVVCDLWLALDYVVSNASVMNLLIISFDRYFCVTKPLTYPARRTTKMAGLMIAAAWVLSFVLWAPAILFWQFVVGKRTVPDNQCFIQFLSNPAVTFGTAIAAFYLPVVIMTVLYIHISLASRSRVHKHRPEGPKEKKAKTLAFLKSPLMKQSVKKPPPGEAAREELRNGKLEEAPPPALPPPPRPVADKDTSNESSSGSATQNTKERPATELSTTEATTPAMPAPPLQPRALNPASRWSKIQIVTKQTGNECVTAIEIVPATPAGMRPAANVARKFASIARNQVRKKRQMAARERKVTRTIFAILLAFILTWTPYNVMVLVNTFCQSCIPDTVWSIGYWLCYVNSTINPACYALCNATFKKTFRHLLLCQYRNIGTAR
As to the kind of experiment: Displacement of [3H]-NMS from human recombinant M4 receptor expressed in CHO cells assessed as dissociation half life at 100 fold human M4 receptor binding Ki concentration after 24 hrs by dilution-offset filter binding assay. In kind it is cell-based.

For data set [7], the target named is T4, Muscarinic acetylcholine receptor M5 (Homo sapiens, UniProt P08912).
T4 sequence (P08912 whole entry): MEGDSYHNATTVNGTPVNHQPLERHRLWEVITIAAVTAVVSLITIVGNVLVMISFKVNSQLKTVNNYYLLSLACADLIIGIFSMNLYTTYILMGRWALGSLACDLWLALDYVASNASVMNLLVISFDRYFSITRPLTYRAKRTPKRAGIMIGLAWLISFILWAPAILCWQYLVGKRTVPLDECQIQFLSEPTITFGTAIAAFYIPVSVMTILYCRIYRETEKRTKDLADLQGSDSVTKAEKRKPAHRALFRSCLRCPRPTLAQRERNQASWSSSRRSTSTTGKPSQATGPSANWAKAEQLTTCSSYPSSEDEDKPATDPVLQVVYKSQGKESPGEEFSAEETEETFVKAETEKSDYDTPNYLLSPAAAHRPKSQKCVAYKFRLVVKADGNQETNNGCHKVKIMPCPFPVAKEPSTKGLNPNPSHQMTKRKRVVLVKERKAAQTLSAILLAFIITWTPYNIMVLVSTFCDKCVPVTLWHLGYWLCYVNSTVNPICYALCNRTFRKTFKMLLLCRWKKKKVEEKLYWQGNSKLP
As to the kind of experiment: Displacement of [3H]-NMS from human recombinant M5 receptor expressed in CHO cells after 24 hrs by filter binding assay. In kind it is cell-based.

Data set [8] concerns Canis familiaris. As to the kind of experiment: Bronchodilator activity in methacholine challenged Beagle dog assessed as intrinsic duration of action at 3 ug intratracheally administered as single dose in micelle solution. In kind it is functional, Canis lupus familiaris.
Data set [9] concerns Canis familiaris. As to the kind of experiment: Bronchodilator activity in methacholine challenged Beagle dog assessed as intrinsic duration of action at 10 ug intratracheally administered as single dose in micelle solution. The format is functional, Canis lupus familiaris.
The test system of data set [10] is Canis familiaris. As to the kind of experiment: Toxicity in methacholine challenged Beagle dog assessed effect on heart rate at 3 ug intratracheally administered as single dose in micelle solution. The format is organism-based, Canis lupus familiaris. As to conditions: in vivo, inhaled_or_intranasal.
Data set [11] deals with MDR1. As to the kind of experiment: Apparent permeability across apical to basal side in dog MDCK expressing MDR1. In kind it is ADME, cell-based, Canis lupus familiaris.
The test system of data set [12] is MDR1. As to the kind of experiment: Apparent permeability across basal to apical side in dog MDCK expressing MDR1. In kind it is ADME, cell-based, Canis lupus familiaris.
The test system of a further data set is Rattus norvegicus. As to the kind of experiment: Unbound clearance in iv dosed rat. The format is ADME, organism-based. Particulars: in vivo.
A short description of data set [13]: Total clearance in iv dosed rat. The format is ADME, organism-based. Particulars: in vivo.
Data set [14] is described as follows: Plasma protein binding in iv dosed rat. The format is ADME, organism-based. Particulars: read-out: PPB (converted).
Data set [15] has as its target T5, Muscarinic acetylcholine receptor M3 (Homo sapiens, UniProt P20309). Particulars: CHO.
Data set [16] has as its target T5, Muscarinic acetylcholine receptor M3. As to conditions: CHO. This is another data set of the same source.

The structures appear in SMILES notation.

T5 sequence (P20309 whole entry, looked up): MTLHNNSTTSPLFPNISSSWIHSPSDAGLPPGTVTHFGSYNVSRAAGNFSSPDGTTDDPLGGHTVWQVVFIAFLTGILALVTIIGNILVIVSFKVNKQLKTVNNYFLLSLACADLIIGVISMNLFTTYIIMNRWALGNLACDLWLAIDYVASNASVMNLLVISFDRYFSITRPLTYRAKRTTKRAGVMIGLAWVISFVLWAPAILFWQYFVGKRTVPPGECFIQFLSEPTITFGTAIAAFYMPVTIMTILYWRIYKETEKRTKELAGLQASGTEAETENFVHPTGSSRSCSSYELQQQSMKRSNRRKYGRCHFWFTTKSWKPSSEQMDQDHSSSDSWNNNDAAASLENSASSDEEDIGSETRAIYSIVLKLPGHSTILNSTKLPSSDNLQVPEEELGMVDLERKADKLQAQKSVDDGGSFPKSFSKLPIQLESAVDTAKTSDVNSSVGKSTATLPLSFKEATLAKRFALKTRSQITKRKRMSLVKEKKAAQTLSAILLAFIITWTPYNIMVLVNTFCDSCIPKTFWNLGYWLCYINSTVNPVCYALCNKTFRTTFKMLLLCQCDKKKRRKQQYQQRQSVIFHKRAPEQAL
Muscarinic acetylcholine receptor M3 (Cavia porcellus), sequence (Q8VH26 1-587): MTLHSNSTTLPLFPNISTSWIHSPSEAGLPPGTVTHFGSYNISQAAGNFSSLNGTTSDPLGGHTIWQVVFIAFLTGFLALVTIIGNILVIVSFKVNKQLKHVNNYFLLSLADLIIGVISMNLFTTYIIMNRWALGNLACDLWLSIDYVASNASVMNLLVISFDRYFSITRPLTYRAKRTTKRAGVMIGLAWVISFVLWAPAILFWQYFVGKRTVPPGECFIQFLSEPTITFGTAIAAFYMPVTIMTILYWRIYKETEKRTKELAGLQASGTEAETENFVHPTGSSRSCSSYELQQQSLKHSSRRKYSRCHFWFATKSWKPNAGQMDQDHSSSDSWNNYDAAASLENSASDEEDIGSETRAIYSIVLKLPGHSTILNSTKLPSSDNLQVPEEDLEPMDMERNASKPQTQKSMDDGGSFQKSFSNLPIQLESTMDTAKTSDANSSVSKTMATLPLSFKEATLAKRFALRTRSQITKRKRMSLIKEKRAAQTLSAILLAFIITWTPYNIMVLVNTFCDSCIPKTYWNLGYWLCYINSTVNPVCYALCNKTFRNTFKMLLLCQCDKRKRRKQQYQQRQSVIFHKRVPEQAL

Usually hepatocyte CLint stands for a measure of how fast metabolising enzymes remove a compound, apart from limits set by blood flow. Higher therefore signals faster metabolism. Broadly, the microsomal CLint is the rate of metabolic loss divided by the concentration. For orientation: Ki means the dissociation constant of the complex between target and ligand, obtained from inhibition or displacement. A word on the Papp A→B: it is how fast a substance crosses the layer from the apical side. What is called Papp B→A is the apparent permeability from the basolateral to the apical side of a cell layer. The term clearance denotes a measure of how efficiently the substance is removed, as volume per time. Read a high clearance as efficient removal. Take `CC(C)(CCC(C(N)=O)(c1ccccc1)c1ccccc1)N1CC(Oc2cccc(O)c2)C1` [PF-03635659]: the hepatocyte CLint in [1] is 96 µL/min/1e6 cells. In addition, the microsomal CLint in [2] was determined as 221 µL/min/mg. The TIME in data set [3] was greater than 16 h. The ED50 in the data set with Cavia porcellus worked out at 3 µg. Besides, the T1/2 in data set [4] is 14 h; in data set [6] it was 9.78 h; in data set [15] it was greater than 24 h; in data set [16], greater than 24 h. Also, the Ki in [5] was found to be 0.137 nM; in data set [7], 0.169 nM. Further, the Time in the data set with Canis familiaris [8] is greater than 24 h; in the data set with Canis familiaris [9] it was 32 h. For the same compound, in the data set on Canis familiaris [10], the Activity entry is given as “Non-toxic”. Also, the apparent permeability from apical to basolateral (Papp A→B) in the data set on MDR1 [11] was 7 ×10⁻⁶ cm/s. Besides, the basolateral-to-apical permeability (Papp B→A) in the data set with MDR1 [12] is 64 ×10⁻⁶ cm/s. In addition, the CL free in the data set on Rattus norvegicus stood at 2065 mL/min/kg. In data set [13], the clearance was found to be 134 mL/min/kg. In data set [14], the fraction unbound is 0.065.

Source of the values: ChEMBL document CHEMBL1909511, “Inhalation by design: novel tertiary amine muscarinic M₃ receptor antagonists with slow off-rate binding kinetics for inhaled once-daily treatment of chronic obstructive pulmonary disease” (J Med Chem, 2011).
